This is an account of results in ChEMBL document CHEMBL1131771, “Structure-activity relationship analysis of substituted 4-quinolinamines, antagonists of immunostimulatory CpG-oligodeoxynucleotides” (Bioorg Med Chem Lett, 1999).

Structures are written as SMILES.

Data set [1] in a line: Concentration required for half-maximal inhibition of CpG-ODN effect on thymidine uptake by WEHI 231 murine B-cells in the presence of alpha-sIgM. It is filed as functional, cell-based. The settings on record: Mus musculus, WEHI231.
Data set [2] can be described thus: Acid dissociation constant was evaluated. Format: ADME.

`CN(C)CCNc1cc(/C=C/c2ccccc2)nc2ccccc12`: the half-maximal effective concentration (EC50) (commonly the midpoint of the concentration-response curve) in data set [1] worked out at 6.5 nM.
Still for that read-out and setting: for `Cc1ccc(-c2cc(NCCCN(C)C)c3ccccc3n2)cc1` the value was 11.5 nM.
Turning to `CN(C)CCOc1cc(-c2ccc3ccccc3c2)nc2ccccc12`, the half-maximal effective concentration (EC50) in data set [1] is 478 nM. The pKa – broadly, the negative logarithm of the acid dissociation constant – in data set [2] was 6.1.
As for `CN(C)CCNc1cc(-c2cccc3ccccc23)nc2ccccc12`, the concentration for a half-maximal effect (EC50) in data set [1] amounted to 39.8 nM.
With `CCCCc1ccc(Nc2cc(-c3ccc4ccccc4c3)nc3ccccc23)cc1`, the EC50 in data set [1] is more than 10000 nM.
Regarding `CN(C)CCNc1cc(-c2ccc(C(F)(F)F)cc2)nc2ccccc12`, in data set [1], the EC50 was 155 nM.
The same measure, in the same setting: for `Oc1ccc(Nc2cc(-c3ccc4ccccc4c3)nc3ccccc23)cc1` the value was 320 nM.
Turning to `CN(C)CCN(C)c1cc(-c2ccc3ccccc3c2)nc2ccccc12`, the EC50 in data set [1] is 416 nM. The pKa in data set [2] turned out to be 6.2.
Turning to `CN(C)CCCNc1cc(-c2ccc3ccccc3c2)nc2ccccc12`, the EC50 in data set [1] turned out to be 11 nM.
For the compound `Cc1ccc(-c2cc(NCCN(C)C)c3ccccc3n2)cc1`, the concentration for a half-maximal effect (EC50) in data set [1] was 12.3 nM.
As for `CN(C)CCCCNc1cc(-c2ccc3ccccc3c2)nc2ccccc12`, the 50% effective concentration (EC50) in data set [1] was 4 nM.
In the case of `OCCOCCNc1cc(-c2ccc3ccccc3c2)nc2ccccc12`, in data set [1], the EC50 was determined as 330 nM.
The same measure, in the same setting: for `CCN(CC)CCCC(C)Nc1ccnc2cc(Cl)ccc12` (stereo not given) [CHLOROQUINE] the value was 110 nM.
`O=C(CCCO)NCCCN1CCN(CCCNc2cc(-c3ccc4ccccc4c3)nc3ccccc23)CC1`: the EC50 in data set [1] was determined as 25.1 nM.
With `CN(C)CCCNc1ccnc2ccccc12`, the EC50 in data set [1] came out at 4400 nM.
The same measure, in the same setting: for `CC(Nc1cc(-c2ccc3ccccc3c2)nc2ccccc12)C(O)c1ccccc1` (stereo not given) the value was 1000 nM.
On the same count and under the same terms, the figure for `CCN(CC)CCCC(C)Nc1cc(-c2ccccc2)nc2cc(Cl)ccc12` (stereo not given) is 51.3 nM.
With `CN(C)CCNC(=O)c1cc(-c2ccc3ccccc3c2)nc2ccccc12`, the half-maximal effective concentration (EC50) in data set [1] is more than 10000 nM. Besides, the pKa in data set [2] came to 2.9.
As for `CN(C)CCCCCCNc1cc(-c2ccc3ccccc3c2)nc2ccccc12`, the EC50 in data set [1] came to 5.9 nM.
Consider `CN(C)CCSc1cc(-c2ccc3ccccc3c2)nc2ccccc12`, for which the 50% effective concentration (EC50) in data set [1] was found to be 2400 nM.
Regarding `Oc1c(CN2CCOCC2)cc(Nc2cc(-c3ccc4ccccc4c3)nc3ccccc23)cc1CN1CCOCC1`, the EC50 in data set [1] turned out to be 10 nM.
Take `CN1CCN(Cc2cc(Nc3cc(-c4ccc5ccccc5c4)nc4ccccc34)cc(CN3CCN(C)CC3)c2O)CC1`: in data set [1], the 50% effective concentration (EC50) stood at 0.24 nM. The compound also gave a pKa in data set [2] of 6.9.
For `CC(C)(C)OC(=O)NCCNc1cc(-c2ccc3ccccc3c2)nc2ccccc12`, in data set [1], the 50% effective concentration (EC50) came to 570 nM.
With `Oc1c(CN2CCCCC2)cc(Nc2cc(-c3ccc4ccccc4c3)nc3ccccc23)cc1CN1CCCCC1`, the EC50 in data set [1] turned out to be 1.5 nM.
As to `CN(C)CCNc1cc(-c2ccc3ccc4ccccc4c3c2)nc2ccccc12`, the concentration giving a half-maximal response (EC50) in data set [1] was 11 nM.
Same read-out and setting: the figure for `CN(C)CCCCNc1ccnc2ccccc12` is 316 nM.
The same measure, in the same setting: the figure for `Oc1c(CN2CCCC2)cc(Nc2cc(-c3ccc4ccccc4c3)nc3ccccc23)cc1CN1CCCC1` is 1.2 nM; for `OCCCCCCNc1cc(-c2ccc3ccccc3c2)nc2ccccc12` it is 170 nM; for `CC(CCCC(C)(C)O)Nc1cc(-c2ccc3ccccc3c2)nc2ccccc12` (stereo not given) it is 1150 nM.
Take `CN(C)CCNc1cc(-c2ccc3ccccc3c2)nc2ccccc12`: in data set [1], the EC50 turned out to be 9.1 nM.
For `OCCc1ccc(Nc2cc(-c3ccc4ccccc4c3)nc3ccccc23)cc1`, the concentration for a half-maximal effect (EC50) in data set [1] came out at 510 nM.
